Laboratory results from patent US8178506B2, “Oligomeric compounds and compositions for use in modulation of small non-coding RNAs” (Regulus Therapeutics Inc., priority 2003, dated 2012).

Test system: DIO mice
Assay: Diet-induced obesity (DIO) mice
Format: in vivo

In the case of “TGAGCTACAGTGCTTCATCTCA [ISIS 340927] (chemistry not given here) [5-10-7 2′-MOE gapmer PS; targets mature mir-143]”, the “liver toxicity (plasma transaminase levels, weekly)” value (25 mg/kg s.c. twice weekly, 25 mg/kg) is reported as “did not cause significant increases in liver toxicity” and the insulin levels (two and four week time points, vs saline) is reported as “effective at reducing insulin levels”.
